Literature values in patent publication US20080195229A1, “Decellularized pericardial tissue” (priority 2007, published 2008).

Legend:
[1] = system: rabbit; conditions: in vivo, iv
[2] = system: 3T3 fibroblasts; conditions: in vitro
[3] = system: Chinese hamster ovary (CHO-K1) cells; conditions: in vitro

SMILES | solubility in alcohol (alcohol) | solubility in water (water) | LD50 [1] [mg/kg] | cytotoxicity compared with glutaraldehyde [2] | clastogenic response (genotoxicity) [3]
C[C@H](CCC(=O)O)[C@H]1CC[C@H]2[C@@H]3CC[C@@H]4C[C@H](O)CC[C@]4(C)[C@H]3C[C@H](O)[C@]12C [Deoxycholic acid] | soluble | sparingly soluble | 15 |  | 
COC(=O)C1=CO[C@@H](O)[C@@H]2C(CO)=CC[C@H]12 [genipin] |  |  |  | substantially less cytotoxic than glutaraldehyde | does not cause clastogenic response
